Measurements: US20080004282A1, “Compositions and methods for modulating gated ion channels” (PainCeptor Pharma Corporation, priority 2006, published 2008)

Target: T1, ASIC1a (Homo sapiens, UniProt P78348)
T1 sequence (P78348 1-528): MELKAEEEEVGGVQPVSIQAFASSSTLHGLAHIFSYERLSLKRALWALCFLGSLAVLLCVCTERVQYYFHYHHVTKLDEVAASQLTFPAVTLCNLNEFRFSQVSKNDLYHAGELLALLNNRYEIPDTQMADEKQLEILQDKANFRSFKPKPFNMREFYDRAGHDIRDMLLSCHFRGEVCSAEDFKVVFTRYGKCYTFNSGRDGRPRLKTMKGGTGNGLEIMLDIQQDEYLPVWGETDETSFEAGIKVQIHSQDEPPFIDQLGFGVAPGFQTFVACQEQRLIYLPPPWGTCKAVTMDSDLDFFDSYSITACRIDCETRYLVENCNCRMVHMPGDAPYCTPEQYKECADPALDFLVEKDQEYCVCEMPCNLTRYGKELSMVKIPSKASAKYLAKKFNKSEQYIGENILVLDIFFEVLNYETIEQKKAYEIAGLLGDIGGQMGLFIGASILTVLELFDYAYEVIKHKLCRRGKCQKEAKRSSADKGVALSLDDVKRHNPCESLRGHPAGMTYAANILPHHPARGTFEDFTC
Test: Two-electrode voltage clamp of acid-induced currents in Xenopus laevis oocytes
Type: cell-based
Set-up: expressed in transfected cells; host or cells: Xenopus laevis oocytes, nuclear microinjection of an expression vector such as pCDNA3
Settings: 50 μM, Xenopus oocytes; read-out: % inh. at 50 μM (Xo)
Protocol: Screening and Bioanalysis of ASIC Antagonists in Xenopus laevis oocytes
This example describes the in vitro assessment of the activity of the compounds of the present invention.
Two-electrode voltage clamp electrophysiological assays in Xenopus laevis oocytes expressing gated ion channels are performed as follows:
Oocytes are surgically removed from adult Xenopus laevis and treated for 2 h at room temperature with 1 mg/ml type I collagenase (Sigma) in Barth's solution under mild agitation. Selected oocytes at stage IV-V are defolliculated manually before nuclear microinjection of 2.5-5 ng of a suitable expression vector, such as pCDNA3, comprising the nucleotide sequence encoding a gated ion channel subunit protein. In such an experiment, the oocytes express homomultimeric proton-gated ion channels on their surface. In an alternate experiment, one, two, three or more vectors comprising the coding sequences for distinct gated ion channel subunits are co-injected in the oocyte nuclei. In the latter case, oocytes express heteromultimeric proton-gated ion channels. For example, ASIC2a and/or ASIC3 subunits in pcDNA3 vector are co-injected at a 1:1 cDNA ratio. After 2-4 days of expression at 19° C. in Barth's solution containing […] gentamicin and 1.8 mM CaCl2, gated ion channels are activated by applying an acidic solution (pH<7) and currents are recorded in a two electrode voltage-clamp configuration, using an OC-725B amplifier (Warner Instruments). Currents are acquired and digitized at 500 Hz on an Apple Imac G3 computer with an A/D NB-MIO-16XL interface (National Instruments) and recorded traces are post-filtered at 100 Hz in Axograph (Axon Instruments) (Neher, E. and Sakmann, B. (1976) Nature 260:799-802). Once impaled with the microelectrodes, oocytes are continuously superfused at 10-12 ml/min with a modified Ringer's solution containing 97 mM NaCl, 2 mM KCl, 1.8 mM CaCl2, and 10 mM HEPES brought to pH 7.4 with NaOH (Control Ringer). Test Ringer solution is prepared by replacing HEPES with MES and adjusting the pH to the desired acidic value. Compounds of the present invention are prepared in both the Control and Test Ringer solutions and applied to oocytes at room temperature through a computer-controlled switching valve system. Osmolarity of all solutions is adjusted to 235 mOsm with choline chloride. Similarly, recordings can also be acquired in an automated multichannel oocytes system as the OpusExpress™ (Molecular Devices, Sunnyvale, USA).
FIGS. 1A and 2A illustrate the inhibitory effects of Compounds 12 and 44 on acid-induced activation of recombinant homomeric hASIC1a channels. FIGS. 1A and 2A show the dose-dependent inhibition of the acid-induced hASIC1a currents recorded from Xenopus laevis oocytes using the two-electrode voltage clamp method (as described in this example) in the absence or presence of increasing concentration of the compounds.

Row | SMILES | inhibition at 50 µM
1 | CCN1CCc2c(-c3cc(F)ccc3OC)ccc(NC(=O)NC(=O)N3C(=O)CN(c4ccc(-c5cc(F)ccc5OC)c5c4CN(CC)CC5)C3=O)c2C1 [Compound 26] | > 30%
2 | CCN1CCc2c(-c3ccccc3)cc(C#N)c([N+](=O)[O-])c2C1 [Compound 51] | 20 to 30%
3 | CCN1CCc2c(-c3ccccc3)cc(Br)c(N)c2C1 [Compound 46] | > 40%
4 | CCN1CCc2c(-c3ccccc3)cc(C#N)c(O)c2C1 [Compound 42] | 20 to 30%
5 | CCN1CCc2c(cc(N3C(=O)CNC3=O)cc2-c2cc(F)ccc2OC)C1 [Compound 28] | 20 to 30%
6 | CCOC(=O)CNC(=O)Nc1ccc(-c2cc(F)ccc2OC)c2c1CN(CC)CC2 [Compound 24] | 20 to 30%
7 | CCN1CCc2c(-c3cc(C)ccc3C)cc(C#N)c(N)c2C1 [Compound 47] | > 40%
8 | CCN1CCc2c(-c3ccccc3)cc(C#N)c(N(S(C)(=O)=O)S(C)(=O)=O)c2C1 [Compound 56] | < 20%
9 | CCN1CCc2c(-c3ccccc3)ccc(N)c2C1 [Compound 35] | 20 to 30%
10 | CCN1CCc2c(-c3ccccc3)cc(C#N)c(N3CCCC3)c2C1 [Compound 53] | > 40%
11 | CCN1CCc2c(-c3cc(F)ccc3OC)ccc(NCC(=O)OC)c2C1 [Compound 2, [2-Ethyl-5-(5-fluoro-2-methoxy-phenyl)-1,2,3,4-tetrahydro-isoquinolin-8-ylamino]-acetic acid methyl ester] | < 20%
12 | CCN1CCc2c(-c3cc(F)ccc3OC)ccc(NC(N)=O)c2C1 [Compound 23] | 20 to 30%
13 | CC(=O)N1CCc2c(-c3ccccc3)cc(C#N)c(N)c2C1 [Compound 29] | 20 to 30%
14 | Cc1cc2c(N)c(-c3ccccc3)cc(C#N)c2cn1 [Compound 32] | > 30%
15 | CCN1CCc2c(-c3ccccc3)cc(-c3ccccn3)c(N)c2C1 [Compound 36] | < 20%
16 | CCN1CCc2c(-c3ccccc3)cc(C#N)c(Cl)c2C1 [Compound 52] | 25 to 35%
17 | CCN1CCc2c(cc(C#N)cc2-c2ccccc2)C1 [Compound 41] | > 30%
18 | CCN1CCc2c(-c3ccccc3)cc(-c3cnccn3)c(N)c2C1 [Compound 37] | > 30%
19 | CCN1CCc2c(-c3cc(F)ccc3OC)ccc(NC)c2C1 [Compound 34] | > 40%
20 | CCN1CCc2c(-c3ccccc3)cc(C#N)c(Br)c2C1 [Compound 61] | > 30%
21 | CCN1CCc2c(-c3ccccc3)cc(C#N)c(-n3cccc3)c2C1 [Compound 59] | > 50%

Row | SMILES | inhibition at 50 µM
22 | CCN1CCc2c(-c3ccccc3)cc(C#N)c(-c3cccnc3)c2C1 [Compound 60] | 45 to 55%
23 | CCN1CCc2c(-c3ccccc3)cc(C#N)c(N3C(=O)CCC3=O)c2C1 [Compound 58] | 20 to 30%
24 | CCN1CCc2c(-c3ccccc3)cc(C#N)c(-c3cnn(C)c3)c2C1 [Compound 62] | > 30%
25 | CCN1CCc2c(-c3ccccc3)cc(-c3ccc(C)nn3)c(N)c2C1 [Compound 39] | 20 to 30%
26 | CCN1CCc2c(-c3ccccc3)cc(-c3cnn(C)c3N)c(N)c2C1 [Compound 38] | > 30%
27 | CCN1CCc2c(-c3ccccc3)cc(C#N)c(NC(C)=O)c2C1 [Compound 8, N-(7-Cyano-2-ethyl-5-phenyl-1,2,3,4-tetrahydro-isoquinolin-8-yl)-acetamide] | 20 to 30%
28 | CCN1CCc2c(-c3ccccc3)cc(C#N)c(NS(C)(=O)=O)c2C1 [Compound 9, N-(7-Cyano-2-ethyl-5-phenyl-1,2,3,4-tetrahydro-isoquinolin-8-yl)-methanesulfonamide] | 15 to 25%
29 | CCN1CCc2c(-c3cc(F)ccc3OC)ccc(N3C(=O)CNC3=O)c2C1 [Compound 22] | < 20%
30 | N#Cc1cc(-c2ccccc2)c2ccncc2c1N [Compound 30] | 20 to 30%
31 | Cc1cc2c(N)c(C#N)cc(-c3ccccc3)c2cn1 [Compound 31] | > 30%
32 | CCN1CCc2c(-c3ccccc3)cc(C#N)c(NC(=O)CC(=O)OC)c2C1 [Compound 14, N-(7-Cyano-2-ethyl-5-phenyl-1,2,3,4-tetrahydro-isoquinolin-8-yl)-malonamic acid methyl ester] | 20 to 30%
33 | CCN1CCc2c(-c3ccccc3)cc(Br)c(N(C)C)c2C1 [Compound 49] | 20 to 30%
34 | CCN1CCc2c(-c3ccccc3)cc(/C(N)=N/O)c(N)c2C1 [Compound 33] | > 30%
35 | CCN1CCc2c(-c3cc(F)ccc3OC)ccc(N3CC(=O)NC3=O)c2C1 [Compound 25] | > 40%
36 | CCN1CCc2c(-c3ccncc3)cc(C#N)c(N)c2C1 [Compound 55] | < 20%
37 | CCN1CCc2c(-c3ccccc3)cc(-c3cccc(C)n3)c(N)c2C1 [Compound 40] | > 30%
38 | CCN1CCc2c(-c3cc(F)ccc3OC)ccc(NC=O)c2C1 [Compound 27] | < 20%
39 | CCN1CCc2c(-c3cccnc3)cc(C#N)c(N)c2C1 [Compound 54] | > 50%
40 | CCN1CCc2c(-c3ccccc3)cc(C#N)c(NC(=O)C(=O)OC)c2C1 [Compound 57] | < 20%
41 | COc1ccc(F)cc1-c1cc(-c2noc(=O)[nH]2)c(N)c2c1CCN(C)C2 [Compound 5, 3-[8-Amino-5-(5-fluoro-2-methoxy-phenyl)-2-methyl-1,2,3,4-tetrahydro-isoquinolin-7-yl]-4H-[1,2,4]oxadiazol-5-one] | < 20%
